Assay type in all cases: in vivo, rat
Assay [1] has as its system Male Sprague-Dawley rats. In words: pQCT analysis of left and right femoral shafts at day 21, Groups K-R. From the text:
(§1) FIG. 10 (a-b) presents high resolution radiograms of the left and right femurs, respectively, from an additional series of experiments on additional groups of male Sprague-Dawley rats (6 rats per group) aged 9 weeks which were sacrificed and tested after 21 days (3 weeks). The various groups were subjected to the following treatment modalities: Group K—control day 0; Group L—control day 21; Group M—bone marrow ablation (bmx) day 0; Group N—sham day 21; Group O— bmx+phosphate buffer saline (PBS) daily for 21 days; Group P—bmx+PTH[1-34]-NH2 daily for 21 days; Group Q—bmx+ parathyroid hormone related peptide (PTHRP) daily for 21 days; and Group R—bmx+rat α-calcitonin gene related peptide (CGRP) daily for 21 days;
FIG. 11 (a-d) are graphical representations of the results of Peripheral Quantitative Computerized Tomography (PQCT) analyses of, respectively, the left (ablated) and right (non-ablated) femoral shafts of the rats from Groups K-R (see description of FIG. 10). FIGS. 11(a) and 11(b) illustrate the trabecular bone density observed in, respectively the left and right femoral shafts at day 21; whereas, FIGS. 11(c) and 11(d) illustrate the total bone density of, respectively, the left and right femoral shafts at the same interval. The meanings of the abbreviations used in FIGS. 11(a-d) are identical to those described above with regard to FIG. 10. […] [+=p value<0.01 vs. sham; *=p value<0.01 vs. bmx+PTH; **=p value<0.01 vs. bmx+PTH; and #=p value<0.05 vs. PBS];
An additional series of experiments was thereafter carried out with additional groups of rats (K-R) in order to (1) measure the effect of additional bone anabolic agents, i.e., other than parathyroid hormone (PTH[1-34]-NH2) and calcitonin, as well as to compare the effect(s) achieved with such parathyroid hormone with those obtained with the use of alternate anabolic agents, including parathyroid hormone related peptide (PTHrP) and calcitonin gene related peptide (CGRP). As in the case of the analyses discussed above with regard to FIGS. 3-9, in the animals tested only the left femur underwent the bone marrow ablation (bmx) procedure, i.e., there was no ablation of the right femur. Thus, as noted above, any views of the right femur in the figures described below indicating bone marrow ablation (bmx) as a treatment modality should be taken to mean that such treatment was applied to the corresponding left femur. Further, as was additionally the case above, the samples described below with regard to FIGS. 10-13 were taken from the femur shafts, rather than the corresponding distal epiphysis as in the case of FIGS. 1 and 2. The figures discussed below depict the results of end-point studies wherein the measurements were taken only at the 21 day end-point.
FIG. 11 (a-d) graphically illustrates, by means of a bar graph, the improvements in trabecular bone density and, to some extent, total bone density, in the left femoral shaft of rats subjected to the treatment modalities described above with regard to FIG. 10 (a-b); that is, control day 0; bmx day 0; control day 21; sham day 21; bmx+PBS on day 21; bmx+PTH on day 21; bmx+PTHrP on day 21; and bmx+CGRP on day 21. Again, this is attributable that (only) the left femur was subjected to the bmx treatment, and thus was the only femur wherein the effects of such bmx treatment overlapped with that of the systemic treatment with the bone anabolic agent. […] In contrast to the values obtained for the left femur, no significant amount of bone was formed in the right femur, notwithstanding whether it is trabecular bone density or total bone density which is being measured. This lack of new bone is, furthermore, attributable to the fact that the right femur had not been subjected to the bone marrow ablation (bmx) treatment.

In assay [2] the test system is Male Sprague-Dawley rats. The assay can be described thus: High resolution radiograms of left and right femurs, Groups K-R. Particulars: left femur with bmx, agent daily for 21 days.
Description: as §1
FIG. 10 (a-b) presents a set of high resolution radiograms of the entire left and right femurs of additional (to those described above) groups of rats, injected daily for a designated term with one or more of the following agents: phosphate buffer saline (PBS); parathyroid hormone (PTH[1-34]-NH2); parathyroid hormone related peptide (PTHrP); and calcitonin gene related peptide (CGRP). The rats chosen for test subjects were subjected to the following treatment modalities (as indicated in the lower left corner of each of the radiograms): control day 0; control day 21; bone marrow ablation (bmx) day 0; sham day 21; bmx followed by injection of PBS buffer daily for 21 days; bmx followed by injection of PTH daily for 21 days; bmx followed by injection of PTHrP daily for 21 days; and bmx followed by injection of CGRP daily for 21 days.
As shown by FIG. 10(a), the best results, i.e., the greatest bone density, was obtained in the left femur wherein the effect of the bone marrow ablation overlapped with that attributable to the administration of the various anabolic agents. As in the case of FIG. 3, the lighter, i.e, more radio-opaque, areas indicate the locations of the greatest additional bone growth.

Assay [3] concerns Male Sprague-Dawley rats. The assay can be described thus: MicroCT analysis of left femoral shafts, Groups A-J. Particulars: left femoral shaft with bmx. The text has this:
FIG. 6 illustrates the results of Micro Computerized Tomography (MicroCT) analyses of the left (ablated) femoral shafts of the rats which are the subjects of FIGS. 3-4. The abbreviations mean the same as in FIGS. 3-5;
FIG. 6 illustrates the results of a Micro Computerized Tomography (MicroCT) analysis of representative bones taken from the left femoral shaft of control and treated rats. The modality of treatment is set forth in the lower left corner of each of the views, and the abbreviations used therein are the same as those which appear in FIGS. 3-5. The Figure provides a view through a section of each such bone shaft.
The bones were thereafter subjected to a variety of sample analysis techniques. These included X-ray analysis wherein the femurs were X-rayed in individually sealed plastic bags; PIXIMUS analysis using a Lunar PIXIMUS scanner to measure bone mineral density in the bone marrow cavity of the femurs; MicroCT analysis; and blood analysis for osteocalcin, PTH, CT, NTX and growth factors.

The subject of assay [4] is Male Sprague-Dawley rats. The assay can be described thus: Von Kossa stained sections of left femurs subjected to bmx. Particulars: left femur with bmx, PTH daily for 21 days. From the text: FIG. 8 illustrates sections (at 4× magnification) of undecalcified left femurs, subjected to bone marrow ablation (bmx), wherein the bone sections were stained with Von Kossa stain;
FIG. 8 provides views of stained and […] bone sections of the left femur of representative rats subjected to the following treatment modalities: Control day 0; Control day 21; Sham day 21; bmx day 0; bmx+PBS daily for 7 days; bmx+PBS daily for 14 days; bmx+PBS daily for 21 days; bmx+ parathyroid hormone (PTH[1-34]NH2) daily for 7 days; bmx+PTH daily for 14 days, and bmx+PTH daily for 21 days. […] These views provide substantial additional evidence of the efficacy of the method of the present invention.

Setting [5] is: ablated femur, day 21, agent daily for 21 days, Groups K-R.
Setting [6] is: non-ablated femur, day 21, agent daily for 21 days, Groups K-R.

PTH[1-34]-NH2: in assay [1] (setting [5]), the “Left femoral shaft Total density mean” value was found to be 1100.2 mg/mL and the “Left femoral shaft Trabecular density mean” value stood at 540.7 mg/mL. In addition, the “trabecular bone density of left femoral shaft, in words” value in assay [1] (bmx, day 21) was “significantly improved”. For the same substance, in assay [1] (setting [6]), the “Right femoral shaft Total density mean” value amounted to 899.5 mg/mL and the “Right femoral shaft Trabecular density mean” value came to 128.3 mg/mL. In addition, in assay [2], the “bone density on radiograms, in words” value is reported as “best results”. Besides, the “new bone growth in MicroCT, in words” value in assay [3] is on record as “most extensive new bone growth”. For the same substance, the “bone growth within marrow cavity on stained sections, in words” value in assay [4] was “greatest such increase”.

The values above are taken from patent US7776826B2, “Method for fostering bone formation and preservation” (Unigene Laboratories, Inc., priority 2004, dated 2010).
